The experiment deals with Molm13. Description: cells. The settings on record: Homo sapiens, MOLM-13, 96 h, 4 days. Details: Molm13 cell viability screen of virtual-screening hits, 4 days of treatment, per cent of control. The procedure: We performed virtual screening. Briefly, we screened compounds for binding affinity to PRMT9; compounds were from the National Cancer Institute (NCI) and ZINC library (Fig. 4a,b). […] We used doses of 1 and 5 µM in a Molm13 cell-based viability assay (Extended Data Fig. 6a). […] Specifically, we assessed their effects on PRMT9 catalysis (Extended Data Fig. 6b). […] Cells were treated for 4 days with 1 or 5 μM compounds. For each compound, the number represents its library ID. Experiments were triplicated; P values were derived from t tests. b, R493 methylation assay. […] Catalytic activity was assessed by anti-R493 antibody. Synthesized R493me peptide as positive control. c, Catalysis screen of top 20 compounds. PRMT9 protein was pretreated with indicated compound (10 μM), then incubated with PABPC1 peptides and SAM. d, e, Catalytic activity of indicated compounds based on R493 methylation assay (d). Inhibition curves were calculated based on intensity of dots and normalized to DMSO (e). […] LD2 is designed based on NSC641396 (g). Docking model of NSC641396 in the catalytic pocket (f). h, IC50 analysis of LD2 in B-NHL lines. Cells were treated for 4 days with LD2. […] Cells were treated with a dose titration of 0.5–40 μM LD2 for 48 hr. The inhibition activity of LD2 to PRMT9 (right red curve) was evaluated by calculating the normalized PABPC1 R493 methylation signal. The inhibition activity of LD2 to PRMT5 (right blue curve) was evaluated by calculating the normalized SmB’B’ methylation signal (supplementary Fig. 2). k, Vina docking of LD2 with PRMT9, PRMT5, CARM1 or PRMT7 was performed, and the average docking scores (kcal/mol, with standard deviation) were shown. l, Molecular dynamics simulation analyses of LD2 with PRMT9 or PRMT5.
In general, viability refers to a read-out of living cells in per cent, often relative to untreated cells. Regarding `CCn1c2ccccc2c2cc(NC(=O)c3ccccc3-c3ccccc3C(=O)O)ccc21` [NSC132232], the viability at 1 µM was found to be 91.3%.

As for `CN1C2c3ccccc3C3C4c5ccccc5C(C31)C(C2[N+](=O)[O-])N4C` (centres unmarked) [NSC137112], the viability at 1 µM stood at 146% and the viability at 5 µM turned out to be 148%. As to `CCNc1nc(Cl)nc(-c2cn(-c3ccccc3)c3ccccc23)n1` [NSC142446], the viability at 1 µM turned out to be 87.1%. As for `O=C(Nc1ccc(Nc2ccncc2)cc1)c1ccc(Nc2ccnc3ccc([N+](=O)[O-])cc23)cc1` [NSC146771], the viability at 1 µM was 91.1%. In the case of `O=C1c2cccc(Sc3ccccc3)c2C(=O)c2c(Sc3ccccc3)cccc21` [NSC156516], the viability at 1 µM was determined as 122% and the viability at 5 µM turned out to be 118%. On to `O=C(Nc1ccc2ccccc2c1)c1ccc(Cl)cc1Cl` [NSC158959], for which the viability at 5 µM amounted to 127%. With `O=C(Nc1ccc(Nc2ccncc2)cc1)c1ccc(Nc2ccnc3ccc([N+](=O)[O-])cc23)cc1[N+](=O)[O-]` [NSC202386], the viability at 1 µM turned out to be 118% and the viability at 5 µM is 80.4%.

Regarding `O=C(Nc1cccc([N+](=O)[O-])c1)c1cccc(C(=O)Nc2cccc([N+](=O)[O-])c2)c1` [NSC204232], the viability at 1 µM was 110%. With `O=C(Nc1ccccc1Cl)Oc1ccc(-c2ccccc2)cc1` [NSC204321], the viability at 5 µM was 90.1%.

In the case of `O=C(Nc1ccccc1F)Nc1cccc2ccc(O)cc12` [NSC214005], the viability at 1 µM is 81.3% and the viability at 5 µM was 72.7%.

Turning to `O=C(Nc1ccccc1F)Oc1cccc(OC(=O)Nc2ccccc2F)c1` [NSC214026], the viability at 1 µM stood at 92.2% and the viability at 5 µM was determined as 91%. On the same counts, the results for `CC1=CC(C)(C)Nc2ccc(Cc3ccc4c(c3)C(C)=CC(C)(C)N4)cc21` [NSC217697] are 69.3% and 74.4%. For `CO[C@@H]1[C@@H](OC(=O)c2ccc(C)[nH]2)[C@@H](O)[C@H](Oc2ccc3c(O)c(NC(=O)c4ccc(O)c(CC=C(C)C)c4)c(=O)oc3c2Cl)OC1(C)C` [NSC227186], the viability at 5 µM came to 110%.

On to `Fc1ccc(-c2cc(-c3cccs3)cc(-c3ccccc3)n2)cc1` [NSC246999], for which the viability at 5 µM turned out to be 98.7%. With `Cc1cc(N2CCN(C)CC2)n2nc(-c3ccc(Cl)cc3)nc2n1` [NSC252359], the viability at 1 µM turned out to be 64% and the viability at 5 µM stood at 75.8%.

For the compound `O=C1c2ccccc2-c2nc3ccccc3n21` [NSC252777], the viability at 1 µM was 77.6% and the viability at 5 µM came out at 63.7%. With `O=C(Oc1ccc(NC(=O)c2cc3c(cc2Br)OCO3)cc1)c1ccccc1` [NSC268487], the viability at 1 µM turned out to be 83.1% and the viability at 5 µM was found to be 72.1%. In the case of `CO[C@@H]1C[C@](C)(O)Cc2cc3c(c(O)c21)C(=O)c1c(O)cc2c(c1C3=O)O[C@@H]1O[C@@]2(C)[C@H](O)[C@@H](N(C)C)[C@@H]1O` [NSC269148], the viability at 1 µM is 2.1% and the viability at 5 µM came to 1.55%. In the case of `Cc1ccc(C2=Nc3ccccc3SC(c3cccc([N+](=O)[O-])c3)C2)cc1` (centres unmarked) [NSC270737], the viability at 1 µM was 90.8% and the viability at 5 µM turned out to be 15.1%. Consider `O=[N+]([O-])c1ccc(C2CC(c3ccccc3)=Nc3ccccc3S2)cc1` (centres unmarked) [NSC270738], for which the viability at 1 µM came to 84.6%. Consider `COc1cc2c(=O)n3c4c(cccc4c2cc1OC)CC3` [NSC276736], for which the viability at 1 µM amounted to 97.9%.

Take `O=c1cc(-c2cccnc2)oc2c1ccc1ccccc12` [NSC283845]: the viability at 5 µM was found to be 60.4%. Turning to `O=C(Nc1cccc2ccccc12)c1cc2c(cc1Br)OCO2` [NSC292923], the viability at 1 µM was determined as 68.9% and the viability at 5 µM is 68.3%. Regarding `c1ccc(-c2nc3ccccc3nc2-c2ccc(Sc3ccc(-c4nc5ccccc5nc4-c4ccccc4)cc3)cc2)cc1` [NSC293778], the viability at 1 µM is 95.7%.

`Cc1nn(-c2ccccc2)c2c1C(c1ccc([N+](=O)[O-])cc1)C(C#N)=C(N)O2` (centres unmarked) [NSC298892]: the viability at 1 µM was 84.2% and the viability at 5 µM was determined as 69.1%. In the same order, the values of `Nc1nc(N)c2cc(Sc3ccc4ccccc4c3)ccc2n1` [NSC305780] are 12.7% and 6.56%.

`OC(c1cc(-c2ccc(C(F)(F)F)cc2)nc(C(F)(F)F)c1)C1CCCCN1` (centres unmarked) [NSC305798]: the viability at 1 µM stood at 91% and the viability at 5 µM was determined as 18.9%. In the case of `N#C/C(=C\C=C\c1ccccc1)c1nc(-c2ccc(Cl)cc2)cs1` [NSC310347], the viability at 1 µM turned out to be 69.3% and the viability at 5 µM was 74.4%. On to `COc1cc(C2NC(=O)C(C#N)=C(Nc3cccc(C)c3)S2)ccc1O` (centres unmarked) [NSC319435], for which the viability at 1 µM turned out to be 96.8%. On to `Cc1cccc(NC2=C(C#N)C(=O)NC3(CCCC3)S2)c1` [NSC319436], for which the viability at 1 µM is 84% and the viability at 5 µM came to 77.3%. With `Cc1ccc(NC(=O)Nc2nc3ccccc3s2)cc1NC(=O)Nc1nc2ccccc2s1` [NSC319990], the viability at 5 µM came to 96.9%. For `Clc1cc2c(c(CSc3nc4ccccc4n4cccc34)c1)OCOC2` [NSC321491], the viability at 5 µM is 85.7%. Turning to `Cc1c(N2CCCC2)cc2c(c1NC(=O)c1ccccc1Cl)C(C)(C)CC2(C)C` [NSC321496], the viability at 1 µM was 92.4% and the viability at 5 µM is 79.1%.

As for `c1ccc(CSc2nnc3c4ccccc4c4ccccc4c3n2)cc1` [NSC327702], the viability at 1 µM came out at 86.4% and the viability at 5 µM was determined as 82.6%. For `Oc1c(Cl)cc(Cl)cc1/C=N/c1nc(-c2ccc(Cl)cc2)cs1` [NSC328104], the viability at 1 µM is 87.9%. Turning to `Clc1ccc(-c2n[nH]c3c2Cc2ccccc2-3)cc1Cl` [NSC331968], the viability at 1 µM was 62.9% and the viability at 5 µM turned out to be 43.2%. In the case of `Oc1ccccc1-c1nc2c3ccccc3c3ccccc3c2[nH]1` [NSC332670], the viability at 1 µM turned out to be 79.2% and the viability at 5 µM was 84.8%. For the compound `O=C(Nc1ccccc1-c1ccccc1)C(=O)Nc1ccccc1-c1ccccc1` [NSC338042], the viability at 5 µM was found to be 93.1%. Take `CCN(CC)c1nc(Cl)nc(Nc2ccc3cc(-c4ccccc4)c(=O)oc3c2)n1` [NSC338963]: the viability at 1 µM was 114% and the viability at 5 µM came out at 110%.

In the case of `CC(=O)OCc1cc(-c2nc3ccccc3nc2O)nn1-c1ccc(Cl)cc1` [NSC339161], the viability at 5 µM worked out at 87.5%. With `CCN1Cc2c(/C=C/c3ccccc3)nc3ccc(OC)cc3c2N(c2cccc(Cl)c2)C1` [NSC340852], the viability at 1 µM was 88.3% and the viability at 5 µM is 53.2%. Take `Cc1nn(-c2ccccc2)nc1C(=O)Nc1ccc2[nH]ncc2c1` [NSC371765]: the viability at 5 µM worked out at 86.1%. With `COc1ccc(C2OC3=C(Nc4cc(C)c(C)cc4N3)C2=O)cc1` (centres unmarked) [NSC372275], the viability at 1 µM came out at 95.6%. In the case of `C#Cc1cccc(NC(=O)c2ccc(Cl)cc2Cl)c1` [NSC372769], the viability at 1 µM was 82.8% and the viability at 5 µM worked out at 93.1%. As for `O=C(O)C(Cc1c[nH]c2ccccc12)N1C(=O)c2ccccc2C1=O` (centres unmarked) [NSC401077], the viability at 1 µM worked out at 94.6% and the viability at 5 µM is 75.3%.

For `O=C(O)CCC(=O)c1ccc2ccc3cccc4ccc1c2c34` [NSC407628], the viability at 1 µM was determined as 94.7% and the viability at 5 µM is 100%. Take `O=C(Nc1ccc(Br)c2ccccc12)c1ccc2ccccc2c1O` [NSC601359]: the viability at 5 µM stood at 72.7%. On to `Cc1c(Cl)cccc1NC(=O)CC1Sc2ccccc2NC1=O` (centres unmarked) [NSC634396], for which the viability at 1 µM came out at 169% and the viability at 5 µM was 118%. Take `COc1ccccc1/C=C1\Cc2ccccc2C1=O` [NSC636717]: the viability at 5 µM turned out to be 86%. In the case of `COc1cccc(/C=C2\CCc3ccccc3C2=O)c1` [NSC636718], the viability at 5 µM amounted to 65.6%. On to `COc1ccc2c(c1)c1ccc3c(c1n2C)C(=O)C=CC3=O` [NSC641396], for which the viability at 1 µM is 2.72% and the viability at 5 µM is 1.44%. `COc1ccc(/C=C2\Cc3ccccc3C2=O)cc1OC` [NSC643174]: the viability at 1 µM came to 116% and the viability at 5 µM was found to be 81%. With `Cc1cccc2c1c1ccc3c(c1n2C)C(=O)C=CC3=O` [NSC645330], the viability at 1 µM was found to be 52.5% and the viability at 5 µM was determined as 10%.

For `CCCc1cc(=O)oc2c3c(c4c(c12)OC(C)(C)C=C4)OC(C)[C@H](C)[C@@H]3O` (some centres unmarked) [NSC661122], the viability at 1 µM came out at 100% and the viability at 5 µM came to 79.3%.

Consider `Cc1ccc2c(c1)c1ccc3c(c1n2C)C(=O)C=CC3=O` [NSC661221], for which the viability at 1 µM worked out at 7.53% and the viability at 5 µM turned out to be 7.31%. In the case of `CC(=O)c1sc2c(c1OC(=O)c1ccc(Cl)cc1Cl)c(=O)n(-c1ccccc1)c(=S)n2-c1ccccc1` [NSC671136], the viability at 1 µM turned out to be 71.5% and the viability at 5 µM stood at 12.8%.

Values taken from PMC11056319, “Targeting PRMT9-mediated arginine methylation suppresses cancer stem cell maintenance and elicits cGAS-mediated anticancer immunity” (Nature Cancer, 2024).
